Assay in all cases: Growth inhibitory activity against Ba/F3 cell line
Common to all, as to type: cell-based

Assay [1] has as its system Parental Ba/F3 cells. The settings on record: BaF3; Parental Ba/F3 with mouse IL-3 1 ng/mL; 72 hours; cell titer glo. On the procedure: (§1) A Ba/F3 cell line expressing an FLT3 mutation gene was cultured in a culture solution including 90% RPMI, 10% FBS, and an antibiotic (Welgene). 100 uL of the Ba/F3 cell line was put into each of 5,000 wells of a TC-treated 96 well plate (SPL), and then 1 uL of a test compound diluted in dimethylsulfoxide (diluted for each 3 paint from a concentration of 1 mM, total 10 concentrations) was each injected thereinto. Thereafter, the resulting cell lines were incubated in a cell culture incubator for 72 hours. 50 uL of a cell titer glo (Promega) solution was added thereto, the resulting mixture was stored at room temperature for 10 minutes, and then the light emission intensity was measured by using a reader (Envision, PerkinElmer). The light emission intensity was shown as a graph for each final concentration of the test compound, and the GI50 value was obtained by using a Prism 5.0 (GraphPad) software.
A parental Ba/F3 cell line having no FLT3 mutation gene was cultured by using a culture solution supplemented with mouse IL-3 (R&D Systems), such that a final concentration became 1 ng/mL in the culture solution including 90% RPMI, 10% FBS, and an antibiotic (Welgene). The activity was measured by a method which is the same as described above.

In assay [2] the target is T1, FLT3-D835Y Ba/F3 cells (Homo sapiens, UniProt P36888, D835Y, cells depend on it).
T1 sequence (P36888 1-993 D835Y): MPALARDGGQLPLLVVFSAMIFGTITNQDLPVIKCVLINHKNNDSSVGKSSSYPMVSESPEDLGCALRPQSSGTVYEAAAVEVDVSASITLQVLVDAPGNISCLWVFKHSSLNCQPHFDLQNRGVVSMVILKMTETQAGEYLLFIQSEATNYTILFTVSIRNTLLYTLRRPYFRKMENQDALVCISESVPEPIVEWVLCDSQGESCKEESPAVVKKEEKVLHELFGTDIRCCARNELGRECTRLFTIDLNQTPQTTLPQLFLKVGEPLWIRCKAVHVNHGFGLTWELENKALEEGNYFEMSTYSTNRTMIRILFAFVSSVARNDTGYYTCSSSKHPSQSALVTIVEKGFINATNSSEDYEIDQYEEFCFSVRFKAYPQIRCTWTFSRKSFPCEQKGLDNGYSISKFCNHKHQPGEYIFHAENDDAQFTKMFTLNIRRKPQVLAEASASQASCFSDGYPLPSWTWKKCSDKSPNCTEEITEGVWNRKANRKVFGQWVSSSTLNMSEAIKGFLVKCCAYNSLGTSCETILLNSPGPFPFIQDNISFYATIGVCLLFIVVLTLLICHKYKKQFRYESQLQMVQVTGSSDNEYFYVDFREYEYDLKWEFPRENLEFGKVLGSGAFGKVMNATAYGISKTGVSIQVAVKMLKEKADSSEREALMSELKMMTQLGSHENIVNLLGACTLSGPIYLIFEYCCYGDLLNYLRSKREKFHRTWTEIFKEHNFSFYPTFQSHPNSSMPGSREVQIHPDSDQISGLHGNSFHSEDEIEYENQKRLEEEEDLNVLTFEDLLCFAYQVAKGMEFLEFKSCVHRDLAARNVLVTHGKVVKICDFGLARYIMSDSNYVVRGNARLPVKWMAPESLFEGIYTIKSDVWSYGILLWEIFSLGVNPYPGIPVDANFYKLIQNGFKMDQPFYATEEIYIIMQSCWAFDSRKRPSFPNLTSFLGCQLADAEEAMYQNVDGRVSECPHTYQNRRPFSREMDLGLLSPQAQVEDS
As to conditions: Ba/F3 expressing FLT3-D835Y; 72 hours; cell titer glo; read-out: IC50 (uM) FLT3-D835Y. On the procedure:
as §1

Assay [3] has as its target T2, FLT3-ITD Ba/F3 cells (Homo sapiens, UniProt P36888, cells depend on it, form not given).
T2 sequence (P36888 1-993): T1 sequence (P36888 1-993 D835Y) with Y835D
The settings on record: Ba/F3 expressing FLT3-ITD; 72 hours; cell titer glo; read-out: IC50 (uM) FLT3-ITD. On the procedure: as §1
For orientation: In ATP-based viability assays light output follows the ATP content of the culture.

SMILES strings stand for the structures. Where a chain is given by its changes, count along the chain named. Structures can show the parent of a compound that is named as a salt.

With `NC(=O)Nc1cc(C#Cc2ccccc2)sc1C(=O)N[C@H]1CCCNC1` [Example 2, (S)-5-(phenylethynyl)-N-(piperidin-3-yl)-3-ureidothiophene-2-carboxamide], the concentration for half-maximal inhibition (IC50) in assay [1] was 0.159 µM. The results for the GI50 in assay [2] and in assay [3] were 0.002 µM and below 0.001 µM, respectively.

Consider `NC(=O)Nc1cc(C#Cc2cccnc2)sc1C(=O)N[C@H]1CCCNC1` [Example 3, (S)—N-(piperidin-3-yl)-5-(pyridin-3-ylethynyl)-3-ureidothiophene-2-carboxamide], for which, in assay [1], the IC50 is 6.46 µM. Also, the GI50 in assay [2] is 0.05 µM; in assay [3] it was below 0.005 µM.

As for `NC(=O)Nc1cc(C#Cc2ccncc2)sc1C(=O)N[C@H]1CCCNC1` [Example 4, (S)—N-(piperidin-3-yl)-5-(pyridin-4-ylethynyl)-3-ureidothiophene-2-carboxamide], the half-inhibitory concentration (IC50) in assay [1] amounted to 24 µM. Further, the GI50 in assay [2] is 0.408 µM; in assay [3], 0.016 µM.

With `NC(=O)Nc1cc(C#Cc2cccc([N+](=O)[O-])c2)sc1C(=O)N[C@H]1CCCNC1` [Example 5, (S)-5-((3-nitrophenyl)ethynyl)-N-(piperidin-3-yl)-3-ureidothiophene-2-carboxamide], the concentration for half-maximal inhibition (IC50) in assay [1] is 2.06 µM. Moreover, the GI50 was 0.039 µM in assay [2] and below 0.005 µM in assay [3].

Regarding `N#Cc1cccc(C#Cc2cc(NC(N)=O)c(C(=O)N[C@H]3CCCNC3)s2)c1` [Example 6, (S)-5-((3-cyanophenyl)ethynyl)-N-(piperidin-3-yl)-3-ureidothiophene-2-carboxamide], the 50% inhibitory concentration (IC50) in assay [1] came out at 1.59 µM. Also, the GI50 in assay [2] was 0.041 µM; in assay [3] it was below 0.005 µM.

Consider `NC(=O)Nc1cc(C#Cc2ccc([N+](=O)[O-])cc2)sc1C(=O)N[C@H]1CCCNC1` [Example 7, (S)-5-((4-nitrophenyl)ethynyl)-N-(piperidin-3-yl)-3-ureidothiophene-2-carboxamide], for which, in assay [1], the IC50 came to 1.86 µM. In addition, the GI50 is 0.07 µM in assay [2] and below 0.005 µM in assay [3].

On to `NC(=O)Nc1cc(C#Cc2ccc(Cl)cc2)sc1C(=O)N[C@H]1CCCNC1` [Example 8, (S)-5-((4-chlorophenyl)ethynyl)-N-(piperidin-3-yl)-3-ureidothiophene-2-carboxamide], for which, in assay [1], the 50% inhibitory concentration (IC50) was 0.36 µM. Further, the GI50 in assay [2] came out at 0.01 µM; in assay [3] it was 0.001 µM.

Regarding `NC(=O)Nc1cc(C#Cc2ccc(F)cc2)sc1C(=O)N[C@H]1CCCNC1` [Example 9, (S)-5-((4-fluorophenyl)ethynyl)-N-(piperidin-3-yl)-3-ureidothiophene-2-carboxamide], in assay [1], the IC50 was 0.429 µM. Besides, the GI50 in assay [2] was 0.003 µM; in assay [3], below 0.001 µM.

Turning to `NC(=O)Nc1cc(C#Cc2ccccn2)sc1C(=O)N[C@H]1CCCNC1` [Example 10, (S)—N-(piperidin-3-yl)-5-(pyridin-2-ylethynyl)-3-ureidothiophene-2-carboxamide], in assay [1], the 50% inhibitory concentration (IC50) worked out at 4.62 µM. The GI50 is 0.041 µM in assay [2] and 0.005 µM in assay [3].

Consider `N#Cc1ccc(C#Cc2cc(NC(N)=O)c(C(=O)N[C@H]3CCCNC3)s2)cc1` [Example 11, (S)-5-((4-cyanophenyl)ethynyl)-N-(piperidin-3-yl)-3-ureidothiophene-2-carboxamide], for which the IC50 in assay [1] came to 0.143 µM. Also, the GI50 in assay [2] is 0.003 µM; in assay [3], below 0.001 µM.

Take `NC(=O)Nc1cc(C#Cc2n[nH]c3ccccc23)sc1C(=O)N[C@H]1CCCNC1` [Example 12, (S)-5-((1H-indazol-3-yl)ethynyl)-N-(piperidin-3-yl)-3-ureidothiophene-2-carboxamide]: in assay [1], the IC50 was above 10 µM. The results for the GI50 in assay [2] and in assay [3] were 0.289 µM and 0.037 µM, respectively.

On to `NC(=O)Nc1cc(C#Cc2ccc(F)nc2)sc1C(=O)N[C@H]1CCCNC1` [Example 13, (S)-5-((6-fluoropyridin-3-yl)ethynyl)-N-(piperidin-3-yl)-3-ureidothiophene-2-carboxamide], for which the IC50 in assay [1] came out at 2.22 µM. Also, the values for the GI50 in assay [2] and in assay [3] were 0.014 µM and 0.002 µM, respectively.

With `NC(=O)Nc1cc(C#Cc2ccc(F)c(F)c2)sc1C(=O)N[C@H]1CCCNC1` [Example 14, (S)-5-((3,4-difluorophenyl)ethynyl)-N-(piperidin-3-yl)-3-ureidothiophene-2-carboxamide], the IC50 in assay [1] was 0.269 µM. For the same molecule, the GI50 in assay [2] is 0.005 µM; in assay [3] it was below 0.001 µM.

Consider `Cn1cc(C#Cc2cc(NC(N)=O)c(C(=O)N[C@H]3CCCNC3)s2)cn1` [Example 15, (S)-5-((l-methyl-1H-pyrazol-4-yl)ethynyl)-N-(piperidin-3-yl)-3-ureidothiophene-2-carboxamide trifluoroacetate], for which, in assay [1], the IC50 was determined as 34.6 µM. The GI50 in assay [2] was 0.268 µM; in assay [3], 0.028 µM.

As to `NC(=O)Nc1cc(C#Cc2ccc(C(F)(F)F)cc2)sc1C(=O)N[C@H]1CCCNC1` [Example 16, ((S)—N-(piperidin-3-yl)-5-((4-(trifluoromethyl)phenyl)ethynyl)-3-ureidothiophene-2-carboxamide trifluoroacetate], the concentration for half-maximal inhibition (IC50) in assay [1] is 14.8 µM. Also, the GI50 in assay [2] is 0.197 µM; in assay [3], 0.006 µM.

For `NC(=O)Nc1cc(C#Cc2ccc(C(F)(F)F)nc2)sc1C(=O)N[C@H]1CCCNC1` [Example 17, (S)—N-(piperidin-3-yl)-5-((6-(trifluoromethyl)pyridin-3-yl)ethynyl)-3-ureidothiophene-2-carboxamide], the IC50 in assay [1] was 2.37 µM. For the same molecule, the GI50 in assay [2] was 0.064 µM; in assay [3] it was below 0.005 µM.

In the case of `COC(=O)c1ccc(C#Cc2cc(NC(N)=O)c(C(=O)N[C@H]3CCCNC3)s2)cc1` [Example 18, methyl (S)-4-((5-(piperidin-3-ylcarbamoyl)-4-ureidothiophen-2-yl)ethynyl)benzoate trifluoroacetate], the concentration for half-maximal inhibition (IC50) in assay [1] was found to be 0.454 µM. Besides, the GI50 in assay [2] is 0.011 µM; in assay [3] it was 0.003 µM.

By IC50 is commonly meant the concentration at which inhibition is half-maximal.

For the origin of these results see patent US10442796B2, “2,3,5-substituted thiophene compound as protein kinase inhibitor” (KOREA INSTITUTE OF SCIENCE AND TECHNOLOGY, priority 2016, dated 2019).
